Source: patent US20220008542A1, “ANTI-PROTOZOAL COMPOUNDS AND USES THEREOF” (AUBURN UNIVERSITY, priority 2017, published 2022)
Where two headings read alike, the source gives them in different places.

Tests used:
T. foetus trophozoites [1] = assay: Example 3: T. foetus trophozoites in tissue culture wells, 5 passages (120 hours), re-emergence of organisms; format: cell-based, Tritrichomonas foetus; settings: for subsequent cultures: over a 5 day period
Protocol: (§1) Experiments were performed in vitro using pure cultures of T. foetus trophozoites with the addition of i) an antiprotozoal compound alone or ii) a veterinary formulation comprising an antiprotozoal compound and a polymer. Samples were evaluated at predetermined time points using Neubauer hemocytometers (C-Chip® NanoEnTek Inc., Pleasanton, Calif.) to determine the number of viable organisms and the induction of the pseudocyst form. Cultures were tested for reversibility to the motile trophozoite form or replication of organisms.
(§2) The CDTf3 cloned strain of T. foetus was utilized for the instant examples. The parasites were cultivated in trypticase-yeast extract-maltose (TYM) Diamond's medium (DM) and supplemented with 10% heat-inactivated fetal bovine serum (Atlanta Biologics, Norcross, Ga.) at 37° C. for 24-48 hours until adequate numbers of trichomonads were present to perform the required number of replications. Following culture, T. foetus organisms were washed and re-suspended in 1 mL of sterile phosphate buffered saline (PBS) and then inoculated into 15 mL conical tubes (BD Falcon, Franklin Lakes, N.J.) or tissue culture wells (Sarstedt, Inc., Newton, N.C.) containing DM.
Trophozoites (5×10^4 mL^−1) were cultured as described above and added to all tissue culture wells along with 3 mL of DM for a total volume of 4 mL of DM with 50,000 organisms per well. At time 0, each of the following treatment groups were added to tissue culture wells as follows: Group 1) positive control 4 mL DM; Group 2) negative control 4 mL 70% ethanol (EtOH); Group 3) 150 mg oxfendazole solution (OXF) (1 mL)+2 mL Velvachol (VC)+1 mL PLO; Group 4) 150 mg OXF (1 mL)+3 mL VC; Group 5) 150 mg OXF (1 mL)+3 mL EtOH; Group 6) 150 mg OXF (1 mL)+2 mL EtOH+1 mL PLO; Group 7) 1 mL EtOH+2 mL VC+1 mL PLO; Group 8) 1 mL EtOH+3 mL VC; Group 9) 3 mL EtOH+1 mL PLO; Group 10) 4 mL EtOH; Group 11) 4 mL VC; Group 12) 150 mg oxfendazole dissolved in 4 mL 99% DMSO; and Group 13) 4 mL 99% DMSO.
The OXF (U.S. Pharmacopeial Convention Rockville, Md.) stock solution was made in EtOH (Humco Texarkana, TX) and stored at 150 mg mL^−1, with the exception of Formulation 13 which included OXF dissolved in 99% DMSO (VedCo, Saint Joseph, Mo.). The combinations of PLO (Pluronic F127 Letco Medical, Decatur, Ala.), VC (Valeant North America LLC, Bridgewater, N.J.), EtOH (Humco Texarkana, TX), and OXF stock solution were mixed as described above.
Each treatment was applied to tissue culture wells in duplicate. Following culture as described in Example 2, samples were collected every 8 hours for a total of 24 hours and counted as previously described. At 24 hours post-treatment and following counting of organisms, each formulation was removed from the tissue culture well and centrifuged at 4000 g for 10 minutes. The supernatant was removed and placed in a labeled vial for evaluation of drug concentration at a later time. The pellet was re-suspended in 4 mL of DM and placed once again in a tissue culture well before being re-incubated at 37° C. This process was repeated every 24 hours for 5 passages (120 hours) to allow for re-emergence of any organisms. Assays were continued to be microscopically examined during this period for the presence of T. foetus organisms in culture by counting of live organisms.

T. foetus trophozoites [2] = assay: Example 1: T. foetus trophozoites in culture tubes, surviving organisms counted by hemocytometer, re-culture at 12 hours; format: cell-based, Tritrichomonas foetus; settings: for inhibition of parasite growth: PO 75 mg mL^-1, OX 50 mg mL^-1, compound alone; for reduction in motile organisms: after 2 hours of culture, compound alone; for motile organisms after re-culture: re-culture at 12 hours, examination at 24 hours
Protocol: as §1, §2
Trophozoites (3.75×10^5 mL^−1) were washed in PBS (VWR, Radnor, Pa.) and inoculated into 10 mL of fresh DM. At time 0, each of the following treatment groups was added to culture tubes: Group 1) control: 0.5 mL DM; Group 2) 0.5 mL pluronic lecithin organogel (PLO; Pluronic F127); Group 3) 75 mg ponazuril (PO) (0.5 mL); Group 4) 50 mg oxibendazole (OX) (0.5 mL); Group 5) 37.5 mg PO (0.25 mL)+0.25 mL PLO; and Group 6) 25 mg OX (0.25 mL)+0.25 mL PLO.
PLO (Pluronic F127 Letco Medical, Decatur, Ala.) was combined with OX (Anthelcide EQ® Zoetis, Florham Park, N.J.) or PO (Marquis® Merial, Duluth, Ga.) paste formulations by shear force, syringe-to-syringe-blending using two luer-lock syringes and a rapid fill connector (Baxter, Inglewood, Calif.). Each treatment was applied to conical culture tubes in 5 replicates. Following growth at 37° C., samples were taken every 2 hours for a total of 12 hours, and the tubes were vortexed prior to removal of a 20 μL sample. From these samples, the surviving organisms were counted utilizing disposable Neubauer hemocytometers (C-Chip® NanoEnTek Inc., Pleasanton, Calif.). At 12 hours post-treatment, each formulation was recultured in fresh DM without antiprotozoal compound and evaluated microscopically daily for the presence of T. foetus organisms in culture. These assays were performed in order to evaluate if the effects exerted by the antiprotozoal compounds could be reversed.

SMILES	surviving organisms / form seen, 8 hours post-incubation (T. foetus trophozoites [1])	surviving organisms / form seen, 16 hours post-incubation (T. foetus trophozoites [1])	surviving organisms / form seen, 24 hours post-incubation (T. foetus trophozoites [1])	surviving organisms / form seen, 48 hours post-incubation (T. foetus trophozoites [1])	surviving organisms / form seen, 72 hours post-incubation (T. foetus trophozoites [1])	surviving organisms / form seen, 96 hours post-incubation (T. foetus trophozoites [1])	surviving organisms / form seen, 120 hours post-incubation (T. foetus trophozoites [1])	death of trophozoites (T. foetus trophozoites [1]; listed as 99% DMSO)	subsequent cultures (T. foetus trophozoites [1])	death of trophozoites (T. foetus trophozoites [1])	inhibition of parasite growth (T. foetus trophozoites [2])	reduction in motile organisms (T. foetus trophozoites [2]) [%]	motile organisms after re-culture (T. foetus trophozoites [2])
C[S+](C)[O-] [DMSO]	dead trophs	dead trophs	dead trophs	dead trophs	dead trophs	no cells	no cells	capable of inducing death of trophozoites	negative cultures				
CCO [EtOH, ethanol]	dead trophs	dead trophs	dead trophs	dead trophs	dead trophs	no cells	no cells		negative cultures	capable of inducing death of trophozoites			
CCCOc1ccc2nc(NC(=O)OC)[nH]c2c1 [OX, methyl (5-propoxy-1H-benzimidazol-2-yl)carbamate]											significantly inhibited parasite growth	98	reestablishment of motile organisms was observed
Cc1cc(-n2c(=O)[nH]c(=O)n(C)c2=O)ccc1Oc1ccc(S(=O)(=O)C(F)(F)F)cc1 [PO, 1-Methyl-3-(3-methyl-4-(4-((trifluoromethyl)sulfonyl)phenoxy)phenyl)-1,3,5-triazinane-2,4,6-trione]											significantly inhibited parasite growth	98	reestablishment of motile organisms was observed
